According to patent US10111822B2, “External dermal composition for anti-ageing and method for producing the same” (Hayashibara Co., Ltd., priority 2012, dated 2018):

Assays:
[1] = test system: NHEK cells; experiment: Proliferation of NHEK cells (methylene blue staining); format: cell-based, human; conditions: 4 days
Source text: Normal human epidermal keratinocytes from neonatal foreskin (commercialized by Kurabo Industries Ltd., Osaka, Japan, and abbreviated as “NHEK cells”, hereinafter) were suspended in EpiLife medium (commercialized by Invitrogen Corporation, Calif., USA) supplemented with a cell-growth supplement (EDGS: EpiLife Defined Growth Supplement) (EpiLife medium supplemented with EDGS is abbreviated as “EpiLife medium”, hereinafter), and subjected to passage cultures at a confluent density of 60 to 80% under a 5% v/v CO2 condition and at 37° C. The proliferated cells were detached from culture vessels, suspended in HuMedia-KB2 medium (commercialized by Kurabo Industries Ltd., Osaka, Japan) to give a cell density of 7.5×10^3 cells/mL, inoculated to 24-well plates coated with collagen (“Cell matrix Type IV”, a product name of Nitta Gelatin Inc., Osaka, Japan) in a volume of 0.4 mL/well, and cultured for one day under a 5% v/v CO2 condition and at 37° C. […] Then, the resulting cells were washed with distilled water and admixed with 0.33 N hydrochloric acid in a volume of 0.5 mL/well to extract the dye (methylene blue), followed by transferring the resulting extract to 96-well plates in a volume of 0.1 mL/well for measuring the absorbance at wavelengths of 595 nm and 650 nm. The values, obtained by subtracting the absorbance at a wavelength of 650 nm from that of 595 nm, were regarded as indexes of cell growth rates, which were relatively evaluated by regarding the value, as a control, obtained with KB2-HI medium free of ascorbic acid 2-glucoside as 100%.

[2] = test system: Microphthalmia-associated transcription factor (MITF); experiment: MITF and phosphorylated MITF in B16 cells (Western); format: cell-based, mouse; conditions: 2 h; for (Phosphorylated MITF)/(MITF): control 0.90; for Phosphorylated MITF / MITF: β-actin regarded as 100%; for Phosphorylated MITF: control 73; for MITF: control 81
Experimental: Test solutions were prepared by dissolving ascorbic acid 2-glucoside (a reagent grade specimen commercialized by Hayashibara Co., Ltd., Okayama, Japan) or L-ascorbic acid (a special reagent grade specimen commercialized by Wako Pure Chemical Industries, Ltd., Tokyo, Japan) in Dulbecco's MEM medium supplemented with 10% v/v fetal calf serum and an antibiotic (abbreviated as “D-MEM medium”, hereinafter) to give a final concentration of 2.0 or 8.0 mM.
Continuously-cultivated B16 cells in D-MEM medium were collected, resuspended in D-MEM medium, inoculated to 6-well plates in an amount of 1×10^5 cells/2 mL/well, and cultured for 24 hours. Thereafter, the culture supernatants were removed by sucking, and any of the test solutions was added to each plate in a volume of 2 mL/well, followed by culturing the cells for two hours. As a control, cells in other plates were added with only D-MEM medium in a volume of 2 mL/plate and cultured for two hours. To each plate, which had been removed its culture supernatant, an ice-chilled Dulbecco's PBS (−), commercialized by Nissui Pharmaceutical Co., Ltd., Tokyo, Japan, was added to wash cells, and the resulting cells were added with a SDS-sample buffer containing 62.5 mM Tris-HCl (pH 6.8), 2% w/v SDS, 10% w/v glycerol, 50 mM dithiothreitol (DTT), and 0.01% w/v bromophenol blue in a volume of 0.1 mL/well, and collected with a scraper. The resulting cell suspension was treated with an ultrasonicator, commercialized by Osminics Inc., Minnesota, USA, and subjected to SDS-polyacrylamide gel electrophoresis. The proteins in the gel were electrically transferred to a nitrocellulose membrane and allowed to sequentially react with a first antibody (Anti-phospho-MITF […] or Anti MITF), a secondary antibody, and LumiGLO™ in this order, followed by allowing to expose an X-ray film for detecting MITF positive bands. The bands thus detected were subjected to band strength analysis using Scion Image to determine the quantity of MITF and phosphorylated MITF. For every B16 cell culture, a 5% v/v CO2 incubator was used. Relative amounts of MITF and phosphorylated MITF and the ratio of phosphorylated MITF against MITF were determined when the level of β-actin in B16 cells upon culturing with each of the test solutions was regarded as 100%.

[3] = pH of aqueous solutions of compositions; format: physicochemical; conditions: 2 g (d.s.b.) dissolved in 20 mL refined water; ratio by mass (anhydrous crystalline sodium salt):(anhydrous crystal)

**Q.** Which Cell growth rate ([1]; 100 μM, control without ascorbic acid 2-glucoside = 100%) does the source give for O=C1O[C@H]([C@@H](O)CO)C(O)=C1O[C@H]1O[C@H](CO)[C@@H](O)[C@H](O)[C@H]1O [ascorbic acid 2-glucoside, 2-O-α-D-glucosyl-L-ascorbic acid] here?
**A.** Its Cell growth rate is 148%.

**Q.** What about the Cell growth rate ([1]; 300 μM, control = 100%) of the same compound?
**A.** The Cell growth rate was 157%.

**Q.** And the Cell growth rate ([1]; 900 μM, control = 100%)?
**A.** The Cell growth rate was 169%.

**Q.** What about the “(Phosphorylated MITF)/(MITF)” value ([2]; 2.0 mM) of the same compound?
**A.** The value was 0.60.

**Q.** What about the “Phosphorylated MITF” value ([2]; 2.0 mM) of the same compound?
**A.** The value was 59%.

**Q.** What about the MITF ([2]; 2.0 mM) of the same compound?
**A.** Its MITF is 99%.

**Q.** What about the “(Phosphorylated MITF)/(MITF)” value ([2]; 8.0 mM) of the same compound?
**A.** Its value is 0.36.

**Q.** What about the “Phosphorylated MITF” value ([2]; 8.0 mM) of the same compound?
**A.** Its value is 36%.

**Q.** What about the MITF ([2]; 8.0 mM) of the same compound?
**A.** The MITF was 101%.

**Q.** And the pH [3]?
**A.** The pH was 1.7.
